Results published in PMC12430429, “Synthesis, Structure, DNA/BSA Binding, DNA Cleaving, Cytotoxic and SOD Mimetic Activities of Copper(II) Complexes Derived from Methoxybenzylamine Schiff Base Ligands” (Molecules, 2025).
Like-named read-outs stand apart in the source and are kept apart here.

Key:
HepG2 cells = assay: MTT cytotoxicity assay, HepG2; type: cell-based, human; conditions: 72 h
Procedure: The cytotoxicity study of the prepared copper(II) complexes was performed using the MTT assay on human cell lines—A549 (adenocarcinoma human alveolar basal epithelial cell line), HepG2 (human liver cancer cell line) and HEL (human lung fibroblast cell line, normal cells).
The cytotoxicity of the prepared copper(II) complexes in human cell lines was evaluated using the 3-(4,5-dimethylthiazol-2-yl)-2,5-diphenyltetrazolium bromide (MTT) assay following the protocol by Mosmann. Briefly, A549 (human lung epithelial cells, carcinoma), HepG2 (human liver epithelial cells, carcinoma) and HEL (human lung fibroblast cells, normal) cells were seeded in plastic 96-well plates at a density of 1.5–2 × 10^4 cells per well. […] After the treatment, the samples were washed with phosphate-buffered saline (PBS), followed by 4 h of incubation with 1 mg/mL of MTT. Subsequently, the MTT solution was removed, and the formed formazane solids were dissolved in dimethyl sulfoxide for 30 min. The photometric evaluation (at 540 nm and 690 nm) was carried out using an xMark™ Microplate Absorbance Spectrophotometer (Bio-Rad, Hercules, CA, USA) [88].
A549 (ATCC® CCL-185), HepG2 (ATCC® HB-8065) and HEL299 (ATCC® CCL-137) cells were obtained from Lambda Life (Bratislava, Slovakia). A549 cells were kept in Dulbecco’s Modified Eagle’s Medium (DMEM) supplemented with 10% fetal bovine serum (FBS) and 1% antibiotics (penicillin and streptomycin). HepG2 cells were kept in Williams medium supplemented with 10% fetal bovine serum (FBS) and 1% antibiotics (penicillin and streptomycin). HEL299 cells were kept in Minimum Essential Medium (MEM) supplemented with 10% fetal bovine serum (FBS), 1% antibiotics (penicillin and streptomycin) and 1% non-essential amino acids (NEAA). The cells were cultured in a humidified atmosphere of 5% CO2 at 37 °C. Once the cells reached approximately 80% confluence, they were harvested and subcultured after trypsin treatment.

[1] = SOD mimetic activity / radical scavenging assay (INT method); type: biochemical; conditions: for Activity at c1 (%), inhibition of radical transfer to INT: c1 = 0.572 mM
Procedure: The radical scavenging ability with respect to the SOD mimetic activity of the prepared complexes was determined by the INT method. This method is based on a competitive reaction with the superoxide anion radical from KO2 between the measured compound (complex) and 2-(4-Iodophenyl)-3-(4-nitrophenyl)-5-phenyl-2H-tetrazolium chloride (INT). INT reacts with the single electron of O2^− and produces blue-green formazane detected as light absorption at 500 nm. Complexes with good antiradical activity also react with O2^−, and as a result of this, less formazane is formed.
The first type of antiradical activity measurements involved the determination of inhibition percent values of electron transfer on INT at specific concentrations (Table 9). Two concentrations were selected to achieve good solubility of the complexes (4 and 1 mM for 4a and 4c, 2 and 1 mM for 4b). The complex 4b dissolved readily at a concentration of 4 mM, but the mixture was very dark, making measurements at 500 nm difficult. Therefore, a less concentrated initial solution was used (2 mM) as the higher concentration. In total, 0.5 mL of the initial solutions was used to prepare sample solutions that also contained INT and KO2 solutions and DMSO with an overall volume of 3.5 mL. The resulting concentrations were c1 = 0.572 mM, c1* = 0.286 mM and c2 = 0.143 mM, respectively. Complexes 4a and 4c once again provided high percentages at c1 (approximately 96–99%) but the activity dropped below 24% at c2, while complex 4b maintained mediocre activity at both concentrations. It seems that the concentration increase had only a small effect on the activity of 4b; something similar was also observed in the DNA cleavage study for complex 4b. The complexes were compared with the model compound cystamine, which was used as a standard for superoxide antiradical scavenging due to the presence of a free […] group, which is also present in glutathione.
To improve the comparability of SOD mimetic activity, IC50 concentrations were determined by performing a series of measurements with decreasing concentration. IC50 values were calculated from the trend function equation as the concentration with 50% inhibition of electron transfer on INT (Table 10).
The method is based on the agent 2-(4-Iodophenyl)-3-(4-nitrophenyl)-5-phenyl-2H-tetrazolium chloride (INT), able to scavenge a superoxide radical anion from KO2. The reaction produces a blue-green formazane, which is detected as light absorption at 500 nm. The radical scavengers (measured complexes) compete with INT for radicals and reduce the formation of formazane and light absorption at 500 nm. Antiradical activity was measured on a Synergy HT BioTek spectrophotometer. DMSO was used as the solvent for the complex and KO2 (saturated solution). The INT initial solution (4 M) was prepared in a sodium tetraborate buffer solution with pH adjusted to 7.1 with HCl.
For each measurement, an initial solution of the sample (0.5 mL) of a specific concentration (4–0.1 mM) was prepared in DMSO. Due to the addition of INT (0.5 mL) and KO2 (0.5 mL) solutions and additional DMSO (2 mL), the concentrations of the measured complexes decreased seven times (3.5 mL of total mixture). Each result was the average value of three parallel measurements expressed with a standard deviation (more information in the Supplementary Materials). For the determination of SOD-IC50, several measurements with decreasing sample concentration were performed. […] A linear trend function of the percentage of inhibition and negative logarithm of concentration was used to calculate the SOD-IC50 value as the concentration with 50% inhibition of INT–formazane formation. […]
Green: 5c 5 mM (S. cerevisiae 1x10^9 cells /ml + 0.5 ml 0.9% NaCl + 0.5 ml 5c + 0.1 ml Resazurin OX) measured in time
S6. SOD Mimetic A ctivity A ssay
For each measurement, an initial solution of the sample of a specific concentration was prepared […]

[2] = 50% inhibition of electron transfer on INT, read-out: SOD-IC50

| Compound | IC50 (HepG2 cells) [µM] | IC50 [1, 2] [µM] | Activity at c1 (%), inhibition of radical transfer to INT [1] [%] | IC50 ([1]; INT method, read-out: concentration of 50% inhibition (SOD-IC50), given as range) [µM] | Activity at c1* (%), inhibition of radical transfer to INT ([1]; c1* = 0.286 mM (reduced for complex 4b)) | Activity at c2 (%), inhibition of radical transfer to INT ([1]; c2 = 0.143 mM) [%] |
| --- | --- | --- | --- | --- | --- | --- |
| COc1ccccc1CN=Cc1ccccc1[O-].COc1ccccc1CN=Cc1ccccc1[O-].[Cl-].[Cl-].[Cu+2].[Cu+2] [Complex 4a, [Cu2 (Sal-2-MeOBn)2 Cl2]] | 17.9 ± 2.6 | 242 ± 1 | 95.8 ± 2.2 |  |  |  |
| COc1ccc(CN=Cc2ccccc2[O-])cc1.COc1ccc(CN=Cc2ccccc2[O-])cc1.[Cl-].[Cl-].[Cu+2].[Cu+2] [Complex 4c, [Cu2 (Sal-4-MeOBn)2 Cl2]] | 21.6 ± 4.9 | 189 ± 11 | 98.9 ± 0.5 |  |  |  |
| COc1cccc(CN=Cc2ccccc2[O][Cu][O]c2ccccc2C=NCc2cccc(OC)c2)c1 [Complex 4b, [Cu (Sal-3-MeOBn)2]] | 32.8 ± 4.9 | 1090 ± 56 |  | > 1000 | 40.1 ± 1.9 * % | 35.8 ± 1.3 |
